From patent US9540388B2, “P2X7 modulators” (Janssen Pharmaceutica NV, priority 2013, dated 2017)

Assays:
[1] = target: T1, P2X7 (Homo sapiens (Human), UniProt Q99572); test: Radioligand binding, recombinant human P2X7-1321N1 cell membranes, tritiated A-804598; conditions: Table 2, additional runs
Protocol: (§1) P2X7 Antagonism in Recombinant Human P2X7 Cells or Recombinant Rat P2X7 Cells: (a) Ca^2+ Flux and (b) Radioligand Binding
(§2) human or rat P2X7-1321N1 cells were collected and frozen @−80° C. On the day of the experiment, cell membrane preparations were made according to standard published methods. […] The compound can be prepared as described in the literature. […] The assay was terminated by filtration (GF/B filters pre-soaked with 0.3% PEI) and washed with washing buffer (Tris-HCl 50 mM). The IC50 generated in the binding assay was corrected for tracer concentration and affinity of the tracer to derive at the affinity (Ki) of the test compounds. […] Data are analyzed and graphed on Graphpad Prism 5.

[2] = target: T2, rat P2X7 (Rattus norvegicus (Rat), UniProt Q64663); test: Radioligand binding, recombinant rat P2X7-1321N1 cell membranes, tritiated A-804598; conditions: Table 2, additional runs
Protocol: as §1, §2

[3] = target: T1, P2X7; test: Ca2+ flux (FLIPR) in 1321N1 cells expressing recombinant human P2X7; type: cell-based; conditions: Table 2, additional runs; 250 μM BzATP
Protocol: as §1
(§3) 1321N1 cells expressing the recombinant human or rat P2X7 channel was cultured in HyQ DME/(HyClone/Dulbecco's Modified Eagle Medium) high glucose supplemented with 10% Fetal Bovine Serum (FBS) and appropriate selection marker. Cells were seeded at a density of 25000 cells/well (96-well clear bottom black walled plates) in 100 μl volume/well. On the day of the experiment, cell plates were washed with assay buffer, containing (in mM): 130 NaCl, 2 KCl, 1 CaCl2, 1 MgCl2, 10 HEPES, 5 glucose; pH 7.40 and 300 mOs. After the wash, cells were loaded with the Calcium-4 dye (Molecular Device) and incubated in the dark for 60 minutes. Test compounds were prepared at 250× the test concentration in neat DMSO. Intermediate 96-well compound plates were prepared by transferring 1.2 μL of the compound into 300 μL of assay buffer. A further 3× dilution occurred when transferring 50 μL/well of the compound plate to 100 μL/well in the cell plate. Cells were incubated with test compounds and dye for 30 minutes. […] The fluorescence change was measured 180 seconds after adding the agonist.

[4] = target: T2, rat P2X7; test: Ca2+ flux (FLIPR) in 1321N1 cells expressing recombinant rat P2X7; type: cell-based; conditions: Table 2, additional runs; 250 μM BzATP
Protocol: as §1, §3

T2 sequence (Q64663 whole entry): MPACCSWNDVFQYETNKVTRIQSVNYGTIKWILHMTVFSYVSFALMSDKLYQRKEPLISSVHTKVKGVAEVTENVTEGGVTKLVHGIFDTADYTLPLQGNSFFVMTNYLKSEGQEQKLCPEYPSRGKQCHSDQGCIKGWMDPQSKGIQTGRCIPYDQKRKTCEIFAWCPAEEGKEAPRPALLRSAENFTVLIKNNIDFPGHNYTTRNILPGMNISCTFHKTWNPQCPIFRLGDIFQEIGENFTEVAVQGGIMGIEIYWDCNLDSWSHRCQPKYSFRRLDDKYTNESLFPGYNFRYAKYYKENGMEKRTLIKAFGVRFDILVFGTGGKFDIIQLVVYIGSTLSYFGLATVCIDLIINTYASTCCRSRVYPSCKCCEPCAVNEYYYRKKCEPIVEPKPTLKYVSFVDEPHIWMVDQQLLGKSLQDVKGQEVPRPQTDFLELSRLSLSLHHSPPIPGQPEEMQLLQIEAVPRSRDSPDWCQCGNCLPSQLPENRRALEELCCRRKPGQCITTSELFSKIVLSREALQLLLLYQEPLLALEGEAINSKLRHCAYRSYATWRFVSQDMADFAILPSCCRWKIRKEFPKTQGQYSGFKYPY
T1 sequence (Q99572 whole entry): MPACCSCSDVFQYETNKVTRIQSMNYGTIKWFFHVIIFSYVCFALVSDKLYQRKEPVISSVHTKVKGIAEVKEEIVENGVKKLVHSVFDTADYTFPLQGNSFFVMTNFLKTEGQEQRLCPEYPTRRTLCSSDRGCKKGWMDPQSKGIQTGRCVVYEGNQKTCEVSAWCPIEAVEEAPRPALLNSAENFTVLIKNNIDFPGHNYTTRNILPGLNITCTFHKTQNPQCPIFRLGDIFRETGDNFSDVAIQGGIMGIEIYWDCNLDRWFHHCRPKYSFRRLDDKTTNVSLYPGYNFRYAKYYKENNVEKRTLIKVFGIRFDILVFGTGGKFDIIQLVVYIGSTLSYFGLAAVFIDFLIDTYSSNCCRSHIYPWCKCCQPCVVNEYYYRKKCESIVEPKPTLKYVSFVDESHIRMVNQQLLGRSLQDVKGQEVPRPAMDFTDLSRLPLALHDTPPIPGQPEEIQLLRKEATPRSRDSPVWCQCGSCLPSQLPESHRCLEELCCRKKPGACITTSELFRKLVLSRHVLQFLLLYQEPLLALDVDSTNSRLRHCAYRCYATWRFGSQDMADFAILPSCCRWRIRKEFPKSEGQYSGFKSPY

Structure (SMILES) | Ki [1] | Ki [2] | IC50 [3] | IC50 [4]
Cc1nc(-c2nnc3n2C[C@H]2CCC[C@@H]3N2C(=O)c2cccc(C(F)(F)F)c2Cl)ccc1F (stereo in doubt) [Example 193, (6R,10S)-11-{[2-Chloro-3-(trifluoromethyl)phenyl]carbonyl}-3-(5-fluoro-6-methylpyridin-2-yl)-5,6,7,8,9,10-hexahydro-6,10-epimino[1,2,4]triazolo[4,3-a]azocine] | 0.0708 µM | 0.0049 µM | 0.0307 µM | 0.0411 µM
Cc1ccnc(-c2nnc3n2C[C@H]2CCC[C@@H]3N2C(=O)c2cccc(C(F)(F)F)c2Cl)c1 (stereo in doubt) [Example 194, (6R,10S)-11-{[2-Chloro-3-(trifluoromethyl)phenyl]carbonyl}-3-(4-methylpyridin-2-yl)-5,6,7,8,9,10-hexahydro-6,10-epimino[1,2,4]triazolo[4,3-a]azocine] | 0.0141 µM | 0.0031 µM | 0.0173 µM | 0.0074 µM
O=C(c1cccc(C(F)(F)F)c1Cl)N1[C@@H]2CCC[C@H]1c1nnc(-c3cccnn3)n1C2 (stereo in doubt) [Example 195, (6R,10S)-11-{[2-Chloro-3-(trifluoromethyl)phenyl]carbonyl}-3-pyridazin-3-yl-5,6,7,8,9,10-hexahydro-6,10-epimino[1,2,4]triazolo[4,3-a]azocine] | 0.0209 µM | – | 0.04 µM | > 10 µM
O=C(c1cccc(C(F)(F)F)c1Cl)N1[C@@H]2CCC[C@H]1c1nnc(-c3cc(C(F)(F)F)ccn3)n1C2 (stereo in doubt) [Example 196, (6R,10S)-11-{[2-Chloro-3-(trifluoromethyl)phenyl]carbonyl}-3-[4-(trifluoromethyl)pyridin-2-yl]-5,6,7,8,9,10-hexahydro-6,10-epimino[1,2,4]triazolo[4,3-a]azocine] | 0.0219 µM | 0.0058 µM | 0.0016 µM | 0.0017 µM
O=C(c1cccc(C(F)(F)F)c1Cl)N1[C@@H]2CCC[C@H]1c1nnc(-c3ccncn3)n1C2 (stereo in doubt) [Example 197, (6R,10S)-11-{[2-Chloro-3-(trifluoromethyl)phenyl]carbonyl}-3-pyrimidin-4-yl-5,6,7,8,9,10-hexahydro-6,10-epimino[1,2,4]triazolo[4,3-a]azocine] | 0.0191 µM | 0.0631 µM | 0.0107 µM | 1.49 µM
O=C(c1ccnc(C(F)(F)F)c1F)N1[C@@H]2CCC[C@H]1c1nnc(-c3ccccn3)n1C2 (stereo in doubt) [Example 198, (6R,10S)-11-{[3-Fluoro-2-(trifluoromethyl)pyridin-4-yl]carbonyl}-3-pyridin-2-yl-5,6,7,8,9,10-hexahydro-6,10-epimino[1,2,4]triazolo[4,3-a]azocine] | 0.0098 µM | 0.0062 µM | 0.0209 µM | 0.327 µM
O=C(c1ccnc(C(F)(F)F)c1Cl)N1[C@@H]2CCC[C@H]1c1nnc(-c3ccccn3)n1C2 (stereo in doubt) [Example 199, (6R,10S)-11-{[3-Chloro-2-(trifluoromethyl)pyridin-4-yl]carbonyl}-3-pyridin-2-yl-5,6,7,8,9,10-hexahydro-6,10-epimino[1,2,4]triazolo[4,3-a]azocine] | 0.0251 µM | 0.005 µM | 0.0295 µM | 0.0127 µM
O=C(c1ccc(F)c(C(F)(F)F)c1Cl)N1[C@@H]2CCC[C@H]1c1nnc(-c3ccccn3)n1C2 (stereo in doubt) [Example 200, (6R,10S)-11-{[2-Chloro-4-fluoro-3-(trifluoromethyl)phenyl]carbonyl}-3-pyridin-2-yl-5,6,7,8,9,10-hexahydro-6,10-epimino[1,2,4]triazolo[4,3-a]azocine] | 0.0107 µM | 0.0032 µM | […] | 0.0102 µM
Cc1c(C(=O)N2[C@@H]3CCC[C@H]2c2nnc(-c4ccccn4)n2C3)cccc1C(F)(F)F (stereo in doubt) [Example 201, (6R,10S)-11-{[2-Methyl-3-(trifluoromethyl)phenyl]carbonyl}-3-pyridin-2-yl-5,6,7,8,9,10-hexahydro-6,10-epimino[1,2,4]triazolo[4,3-a]azocine] | 0.0115 µM | 0.0032 µM | 0.014 µM | 0.726 µM
O=C(c1ccc(Cl)c(F)c1Cl)N1[C@@H]2CCC[C@H]1c1nnc(-c3ccccn3)n1C2 (stereo in doubt) [Example 202, (6R,10S)-11-[(2,4-Dichloro-3-fluorophenyl)carbonyl]-3-pyridin-2-yl-5,6,7,8,9,10-hexahydro-6,10-epimino[1,2,4]triazolo[4,3-a]azocine] | 0.0039 µM | 0.0058 µM | 0.0176 µM | 0.462 µM
O=C(c1ccc(F)c(Cl)c1Cl)N1[C@@H]2CCC[C@H]1c1nnc(-c3ccccn3)n1C2 (stereo in doubt) [Example 203, (6R,10S)-11-[(2,3-Dichloro-4-fluorophenyl)carbonyl]-3-pyridin-2-yl-5,6,7,8,9,10-hexahydro-6,10-epimino[1,2,4]triazolo[4,3-a]azocine] | 0.0053 µM | 0.0022 µM | 0.0253 µM | 0.02 µM
